Legend:
[1] = tested on: postjunctional alpha1-adrenoceptors; details: Brown 1988; cited from earlier work
[2] = tested on: postjunctional alpha2-adrenoceptors; details: Brown 1988; cited from earlier work
A1AR [3] = details: Ma 2010, Hibino 2009; cited from earlier work
[4] = Safety study: topical application to entire scalp with BP, HR and EKG holter monitoring; type: in vivo, human; details: topical application across the entire scalp, synephrine at up to 6 g
Method: Use of weak acting A1AR agonists or agonists having a low affinity for all other adrenergic receptors, as described herein, can provide methods of treatment and/or prophylaxis that are a substantial improvement over conventional methods of use. Improvements can include enhancements in efficacy and/or safety. For example, safety tests were performed with embodiments of the composition using electrocardiogram (EKG) and blood pressure/heart rate (BP/HR) monitoring. […] Details of the study are described in the examples below.
A study was conducted to determine the safety of a topical solution containing 37% synephrine HCl (the composition of formula 01). 10 mL of the topical solution was applied to the entire scalp and rubbed thoroughly at a base line. An additional 10 mL was applied after 2 hours. Blood pressure (BP), heart rate (HR) and EKG measurements were taken using a wearable holter monitor.
In total, 40 female subjects ages 18-65 in good health were enrolled. 30 of the subjects received the active solution and 10 received the placebo (vehicle only). To evaluate the effect of the composition on systemic hemodynamic parameters, a holter monitor was placed on each subject. At baseline, BP and HR were recorded. BP, HR, and EKG data were collected over a 24-hour period via the holter monitor. […] EKG parameters (e.g., ST segments, arrhythmias, etc.) were normal throughout the 24 hour period.

[5] = oral form; Stohs 2011; cited from earlier work
A1AR [6] = details: weak A1AR agonist; Brown 1988; cited from earlier work

SMILES: CNC[C@@H](O)c1ccc(O)cc1 [S-(+)-synephrine]
- potency of the (+) form relative to the (−) form [1]: one to two orders of magnitude less
- potency of the (+) form relative to the (−) form [2]: one to two orders of magnitude less

SMILES: CNCC(O)c1ccc(O)cc1 (stereo not drawn) [synephrine, p-synephrine]
- A1AR binding affinity (A1AR [3]): low
- adverse events (EKG and BP/HR monitoring) [4]: No adverse events
- cardiac or hemodynamic changes [5]: not been shown to induce significant cardiac or hemodynamic changes
- potency less than that of phenylephrine (A1AR [6]): approximately 150 fold
